# ChEMBL document CHEMBL3885881, “DrugMatrix”
# Species: Rattus norvegicus
# Experiment: DrugMatrix - Regimen: Daily Repeat
# Format: toxicity, organism-based, Sprague-Dawley
# Design: regimen Daily Repeat, gender Male, age 6-8 weeks
# Details: in vivo, po, route oral GAVAGE, vehicle 100 % WATER; for ABSOLUTE BASOPHIL / ABSOLUTE EOSINOPHIL / ABSOLUTE LYMPHOCYTE / ABSOLUTE MONOCYTE / ABSOLUTE SEGMENTED NEUTROPHIL / BASOPHIL / EOSINOPHIL / ERYTHROCYTE COUNT / HEMATOCRIT / HEMOGLOBIN / LEUKOCYTE COUNT / LYMPHOCYTE / MEAN CORPUSCULAR HEMOGLOBIN / MEAN CORPUSCULAR HEMOGLOBIN CONCENTRATION / MEAN CORPUSCULAR VOLUME / MONOCYTE / NEUTROPHIL / NUCLEATED RED BLOOD CELLS / PLATELET COUNT: tissue Blood; for ALANINE AMINOTRANSFERASE / ALBUMIN / ALKALINE PHOSPHATASE / ASPARTATE AMINOTRANSFERASE / BLOOD UREA NITROGEN / CARBON DIOXIDE / CHLORIDE / CHOLESTEROL / CREATINE PHOSPHOKINASE / CREATININE / GLUCOSE / LACTATE DEHYDROGENASE / LIPASE / PHOSPHORUS / POTASSIUM / SODIUM / TOTAL BILIRUBIN / TOTAL PROTEIN / URIC ACID: tissue Plasma
# [1] = 8 mg/kg, 120 h, dose level Low, time 5 day
# [2] = 100 mg/kg, 72 h, dose level High, time 3 day
# [3] = 100 mg/kg, 120 h, dose level High, time 5 day
smiles,measurement,setting,value
CCN(C(C)=O)c1cccc(-c2ccnc3c(C#N)cnn23)c1 [ZALEPLON],ABSOLUTE BASOPHIL,[1],0 CELLS/uL
same,ABSOLUTE EOSINOPHIL,[1],56.67 CELLS/uL
same,ABSOLUTE LYMPHOCYTE,[1],12514.33 CELLS/uL
same,ABSOLUTE MONOCYTE,[1],39.33 CELLS/uL
same,ABSOLUTE SEGMENTED NEUTROPHIL,[1],1223 CELLS/uL
same,BASOPHIL,[1],0%
same,EOSINOPHIL,[1],0.33%
same,ERYTHROCYTE COUNT,[1],5.65 x10E6/uL
same,HEMATOCRIT,[1],36.27%
same,HEMOGLOBIN,[1],14.43 G/DL
same,LEUKOCYTE COUNT,[1],13.83 x10E3/uL
same,LYMPHOCYTE,[1],90.67%
same,MEAN CORPUSCULAR HEMOGLOBIN,[1],25.57 pg
same,MEAN CORPUSCULAR HEMOGLOBIN CONCENTRATION,[1],39.8 G/DL
same,MEAN CORPUSCULAR VOLUME,[1],64.17 fL
same,MONOCYTE,[1],0.33%
same,NEUTROPHIL,[1],8.67%
same,NUCLEATED RED BLOOD CELLS,[1],0.33 /100WBC
same,PLATELET COUNT,[1],1230.33 x10E3/uL
same,ALANINE AMINOTRANSFERASE,[1],55.33 u/L
same,ALBUMIN,[1],4.17 G/DL
same,ALKALINE PHOSPHATASE,[1],388.67 u/L
same,ASPARTATE AMINOTRANSFERASE,[1],80.67 u/L
same,BLOOD UREA NITROGEN,[1],14.33 mg/dL
same,CARBON DIOXIDE,[1],31.67 mmol/L
same,CHLORIDE,[1],101.67 MEQ/L
same,CHOLESTEROL,[1],66.33 mg/dL
same,CREATINE PHOSPHOKINASE,[1],267.33 u/L
same,CREATININE,[1],0.15 mg/dL
same,GLUCOSE,[1],126.67 mg/dL
same,LACTATE DEHYDROGENASE,[1],359 u/L
same,LIPASE,[1],11.33 u/L
same,PHOSPHORUS,[1],11.67 mg/dL
same,POTASSIUM,[1],6.04 MEQ/L
same,SODIUM,[1],144.43 MEQ/L
same,TOTAL BILIRUBIN,[1],0.17 mg/dL
same,TOTAL PROTEIN,[1],6 G/DL
same,URIC ACID,[1],1.4 mg/dL
same,ABSOLUTE BASOPHIL,[2],0 CELLS/uL
same,ABSOLUTE EOSINOPHIL,[2],0 CELLS/uL
same,ABSOLUTE LYMPHOCYTE,[2],12984 CELLS/uL
same,ABSOLUTE MONOCYTE,[2],96.67 CELLS/uL
same,ABSOLUTE SEGMENTED NEUTROPHIL,[2],1352.67 CELLS/uL
same,BASOPHIL,[2],0%
same,EOSINOPHIL,[2],0%
same,ERYTHROCYTE COUNT,[2],5.72 x10E6/uL
same,HEMATOCRIT,[2],36.9%
same,HEMOGLOBIN,[2],14 G/DL
same,LEUKOCYTE COUNT,[2],14.43 x10E3/uL
same,LYMPHOCYTE,[2],90%
same,MEAN CORPUSCULAR HEMOGLOBIN,[2],24.5 pg
same,MEAN CORPUSCULAR HEMOGLOBIN CONCENTRATION,[2],37.97 G/DL
same,MEAN CORPUSCULAR VOLUME,[2],64.5 fL
same,MONOCYTE,[2],0.67%
same,NEUTROPHIL,[2],9.33%
same,NUCLEATED RED BLOOD CELLS,[2],0 /100WBC
same,PLATELET COUNT,[2],1335.67 x10E3/uL
same,ALANINE AMINOTRANSFERASE,[2],82.33 u/L
same,ALBUMIN,[2],4.13 G/DL
same,ALKALINE PHOSPHATASE,[2],449.67 u/L
same,ASPARTATE AMINOTRANSFERASE,[2],80 u/L
same,BLOOD UREA NITROGEN,[2],11.67 mg/dL
same,CARBON DIOXIDE,[2],33.33 mmol/L
same,CHLORIDE,[2],106 MEQ/L
same,CHOLESTEROL,[2],71 mg/dL
same,CREATINE PHOSPHOKINASE,[2],245.67 u/L
same,CREATININE,[2],0.2 mg/dL
same,GLUCOSE,[2],139 mg/dL
same,LACTATE DEHYDROGENASE,[2],132.33 u/L
same,LIPASE,[2],10 u/L
same,PHOSPHORUS,[2],11.2 mg/dL
same,POTASSIUM,[2],5.9 MEQ/L
same,SODIUM,[2],144.73 MEQ/L
same,TOTAL BILIRUBIN,[2],0.17 mg/dL
same,TOTAL PROTEIN,[2],5.93 G/DL
same,URIC ACID,[2],1.4 mg/dL
same,ABSOLUTE BASOPHIL,[3],0 CELLS/uL
same,ABSOLUTE EOSINOPHIL,[3],0 CELLS/uL
same,ABSOLUTE LYMPHOCYTE,[3],12362.67 CELLS/uL
same,ABSOLUTE MONOCYTE,[3],101.33 CELLS/uL
same,ABSOLUTE SEGMENTED NEUTROPHIL,[3],1236 CELLS/uL
same,BASOPHIL,[3],0%
same,EOSINOPHIL,[3],0%
same,ERYTHROCYTE COUNT,[3],6.29 x10E6/uL
same,HEMATOCRIT,[3],38.53%
same,HEMOGLOBIN,[3],15 G/DL
same,LEUKOCYTE COUNT,[3],13.7 x10E3/uL
same,LYMPHOCYTE,[3],89.33%
same,MEAN CORPUSCULAR HEMOGLOBIN,[3],23.83 pg
same,MEAN CORPUSCULAR HEMOGLOBIN CONCENTRATION,[3],38.93 G/DL
same,MEAN CORPUSCULAR VOLUME,[3],61.3 fL
same,MONOCYTE,[3],0.67%
same,NEUTROPHIL,[3],10%
same,NUCLEATED RED BLOOD CELLS,[3],0 /100WBC
same,PLATELET COUNT,[3],1219.33 x10E3/uL
same,ALANINE AMINOTRANSFERASE,[3],61.67 u/L
same,ALBUMIN,[3],4.3 G/DL
same,ALKALINE PHOSPHATASE,[3],331.33 u/L
same,ASPARTATE AMINOTRANSFERASE,[3],91 u/L
same,BLOOD UREA NITROGEN,[3],14.67 mg/dL
same,CARBON DIOXIDE,[3],28.67 mmol/L
same,CHLORIDE,[3],102 MEQ/L
same,CHOLESTEROL,[3],83.33 mg/dL
same,CREATINE PHOSPHOKINASE,[3],520 u/L
same,CREATININE,[3],0.17 mg/dL
same,GLUCOSE,[3],157 mg/dL
same,LACTATE DEHYDROGENASE,[3],238.67 u/L
same,LIPASE,[3],11 u/L
same,PHOSPHORUS,[3],11.7 mg/dL
same,POTASSIUM,[3],6.45 MEQ/L
same,SODIUM,[3],144.67 MEQ/L
same,TOTAL BILIRUBIN,[3],0.2 mg/dL
same,TOTAL PROTEIN,[3],6.53 G/DL
same,URIC ACID,[3],2.47 mg/dL
